Experiments:
[1] = target: T1, PTP1B (human, recombinant) (Homo sapiens, UniProt P18031); assay: PTP1B inhibitory activity assay (p-NPP hydrolysis); type: biochemical; conditions: 1 mM p-NPP substrate, pH 6.0, 37.5 °C, 30 min; mean ± SD of triplicate experiments; read-out: PTP1B Inhibitory Effects (IC50 Values)
T1 construct: purchased ATGen Co., Ltd. (Gyeonggi-do, Korea)
T1 sequence (P18031 1-435): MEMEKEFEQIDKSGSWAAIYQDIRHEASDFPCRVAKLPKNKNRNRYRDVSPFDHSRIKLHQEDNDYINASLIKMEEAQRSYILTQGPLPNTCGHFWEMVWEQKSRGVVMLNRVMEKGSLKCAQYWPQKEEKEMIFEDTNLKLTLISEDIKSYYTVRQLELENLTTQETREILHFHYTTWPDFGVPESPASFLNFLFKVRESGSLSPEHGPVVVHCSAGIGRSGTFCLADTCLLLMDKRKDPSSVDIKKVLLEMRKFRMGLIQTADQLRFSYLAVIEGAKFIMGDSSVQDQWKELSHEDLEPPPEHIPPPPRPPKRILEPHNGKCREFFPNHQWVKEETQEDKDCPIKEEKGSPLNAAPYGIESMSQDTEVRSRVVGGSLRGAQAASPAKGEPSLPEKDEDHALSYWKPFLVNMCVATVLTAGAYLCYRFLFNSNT
Procedure: On the basis of these findings, we evaluated the inhibitory effects of the 16 isolated compounds on PTP1B activity. PTP1B enzyme (human, recombinant) was purchased from ATGen Co., Ltd. (Gyeonggi-do, Korea), and its activity was measured using p-nitrophenyl phosphate (p-NPP). The reaction mixture consisted of 50 mM Bis-Tris (pH 6.0), 2.0 mM EDTA, 5.0 mM dithiothreitol (DTT), PTP1B (0.04 μg), and 1.0 mM p-NPP, with or without test compounds. After incubation at 37.5 °C for 30 min, the reaction was stopped via the addition of 10 N NaOH. The production of p-nitrophenol (p-NP) was evaluated by measuring the absorbance at 405 nm. The non-enzymatic hydrolysis of 1.0 mM p-NPP was corrected by measuring the increase in absorbance at 405 nm in the absence of PTP1B enzyme.
PTP1B (human, recombinant) was purchased from ATGen Co., Ltd. (Gyeonggi-do, Korea). The enzyme activity was measured in a reaction mixture containing 1 mM p-NPP in 50 mM Bis-Tris (pH 6.0), 2.0 mM EDTA, and 5.0 mM dithiothreitol (DTT). The reaction mixture was placed in a 37.5 °C for 30 min, followed by termination of the reaction with the addition of 10 N NaOH. The amount of p-NP produced was estimated by measuring the increase in absorbance at 405 nm. The non-enzymatic hydrolysis of 1.0 mM p-NPP was corrected by measuring the increase in absorbance at 405 nm obtained in the absence of PTP1B enzyme. Inhibition kinetics studies were performed in the presence or absence of compounds 1 and 13 with different concentrations of p-NPP. Data were fitted by nonlinear regression analysis according to a Michaelis-Menten kinetic model using GraphPad Prism 5.01.

[2] = target: T1, PTP1B (human, recombinant); assay: Enzyme kinetic study of PTP1B inhibition (Lineweaver-Burk plots); type: biochemical; conditions: Lineweaver-Burk plots: reduction in Vmax, no change in Km
Procedure: To elucidate the characteristics of PTP1B inhibition by the prenylated xanthones and flavonoids, compounds 1 and 13 were selected for an enzyme kinetic study. The kinetic studies were conducted using different concentrations of compounds 1, 13, and p-NPP. The initial rate was determined on the basis of the rate of increase in absorbance at 405 nm. The Michaelis–Menten constant (Km) and maximal velocity (Vmax) of PTP1B were determined by Lineweaver–Burk Plot analysis for competitive inhibition and the intercept on the vertical axis for noncompetitive inhibition. […]
Figure 2 Lineweaver-Burk plots for inhibition of PTP1B-catalyzed hydrolysis of p-NPP by compounds 1 (A) and 13 (B). Data are expressed as mean initial velocity for triplicate experiments (n = 3) at each substrate concentration.
PTP1B (human, recombinant) was purchased from ATGen Co., Ltd. (Gyeonggi-do, Korea). The enzyme activity was measured in a reaction mixture containing 1 mM p-NPP in 50 mM Bis-Tris (pH 6.0), 2.0 mM EDTA, and 5.0 mM dithiothreitol (DTT). […] The amount of p-NP produced was estimated by measuring the increase in absorbance at 405 nm. The non-enzymatic hydrolysis of 1.0 mM p-NPP was corrected by measuring the increase in absorbance at 405 nm obtained in the absence of PTP1B enzyme. […]

| SMILES | IC50 [1] [µM] | Mode of PTP1B inhibition [2] |
| --- | --- | --- |
| C=CC(C)(C)c1c2c(c3oc4cc(O)c(O)cc4c(=O)c3c1O)C=CC(C)(C)O2 [Compound 1, cudratricusxanthone N] | 2 ± 0.4 | noncompetitive |
| C=CC(C)(C)c1c(OC)cc2oc3cc(O)c(O)cc3c(=O)c2c1O [Compound 2, 1,6,7-trihydroxy-2-(1,1-dimethyl-2-propenyl)-3-methoxyxanthone] | 3 ± 0.6 | – |
| C=CC(C)(C)c1c(O)cc(O)c2c(=O)c3cc(O)c(O)cc3oc12 [Compound 3, cudratricusxanthone L] | 3 ± 0.3 | – |
| C=CC(C)(C)c1c(O)cc(O)c2c(=O)c3c(CC=C(C)C)c(O)c(O)cc3oc12 [Compound 4, cudratricusxanthone A] | 4.3 ± 0.6 | – |
| C=CC(C)(C)c1c(O)cc2oc3c(CC=C(C)C)c(O)c(O)cc3c(=O)c2c1O [Compound 5, cudraxanthone L] | 4.6 ± 0.8 | – |
| C=CC(C)(C)c1c(O)c(CC=C(C)C)c2oc3cc(O)c(O)cc3c(=O)c2c1O [Compound 6, macluraxanthone B] | 3.8 ± 0.5 | – |
| C=CC(C)(C)c1c(OC)c(CC=C(C)C)c2oc3cc(O)c(O)cc3c(=O)c2c1O [Compound 7, cudracuspixanthone A] | 1.9 ± 0.4 | – |
| CC(C)=CCc1c2c(c(O)c3c(=O)c4cc(O)c(O)cc4oc13)C(C)(C)C(C)O2 (stereo not drawn) [Compound 8] | 2.8 ± 0.6 | – |
| CC(C)=CCc1c(O)c(O)cc2c(=O)c3c(O)c4c(cc3oc12)OC(C)C4(C)C (stereo not drawn) [Compound 9, cudraxanthone M] | 3.5 ± 0.7 | – |
| CC(C)=CCc1cc([C@@H]2CC(=O)c3c(cc(O)c(CC=C(C)C)c3O)O2)c(O)cc1O [Compound 13, cudraflavanone D] | 5.7 ± 1.5 | noncompetitive |
| CC(C)=CCc1c(O)cc2c(c1O)C(=O)C[C@@H](c1cc3c(cc1O)OC(C)(C)C=C3)O2 [Compound 14, euchrestaflavanone C] | 12.3 ± 2.2 | – |
| CC(C)=CCc1c(O)cc2oc(-c3ccc(O)cc3O)c(CC=C(C)C)c(=O)c2c1O [Compound 15, cudraflavone C] | 9.4 ± 2.9 | – |
| CC(C)=CCc1c(-c2ccc(O)cc2O)oc2c(CC=C(C)C)c(O)cc(O)c2c1=O [Compound 16, kuwanon C] | 13.6 ± 3.3 | – |

Source: paper PMC6272669, “Protein Tyrosine Phosphatase 1B Inhibitors from the Roots of Cudrania tricuspidata” (Molecules, 2015)
